Values of other authors, collected in patent US7166608B2, “N-aroyl piperazine derivatives as orexin receptor antagonists” (SmithKline Beecham p.l.c., priority 2001, dated 2007).

Legend:
[1] = tested on: freely-feeding rats; settings: central administration, 4 hour time period
[2] = tested on: rat sleep/EEG; settings: central administration at the onset of the normal sleep period

orexin-A: peptide ligand (agonist) of the orexin receptors; human sequence given in the 1st table (EPLPDCCRQKTCSCRLYELLHGAGNHAAGILTLNH; Human orexin A)
increase in food intake over control rats receiving vehicle [1]: approximately four-fold
effect on arousal and sleep [2]: dose-related increase in arousal
